Experimental data taken from patent publication US20100267561A1, “HERBICIDAL PYRIDAZINONE DERIVATIVES” (priority 2007, published 2010).
Like-named read-outs stand apart in the source and are kept apart here.

Columns and labels:
Assay type in all cases: in vivo
[1] = test system: large crabgrass (Digitaria sanguinalis); assay: Test A pre-/postemergence plant response; conditions: Digitaria sanguinalis, 240 h, read-out: Plant response rating, Crabgrass, Large; for pest or weed control at 31 g/ha: 31 g ai/ha; for pest or weed control at 125 g/ha: 125 g ai/ha
How it was run: (§1)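 Soil: loam blended with sand. Formulation: non-phytotoxic solvent mixture plus surfactant, applied as preemergence directed soil spray and as postemergence spray. Scoring: visual, 0 no effect to 100 complete control, roughly 10 days post-treatment in greenhouse.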

corn (Zea mays) = assay: Test A pre-/postemergence plant response; conditions: Zea mays, 240 h; for Corn plant response rating (crop injury, 0 = no effect, 100 = complete kill) at 31 g/ha: 31 g ai/ha; for Corn plant response rating (crop injury, 0 = no effect, 100 = complete kill) at 125 g/ha: 125 g ai/ha
How it was run: as §1

[2] = test system: giant foxtail (Setaria faberi); assay: Test A pre-/postemergence plant response; conditions: Setaria faberi, 240 h, read-out: Plant response rating, Foxtail, Giant; for pest or weed control at 31 g/ha: 31 g ai/ha; for pest or weed control at 125 g/ha: 125 g ai/ha
How it was run: as §1

[3] = test system: pigweed (Amaranthus retroflexus); assay: Test A pre-/postemergence plant response; conditions: Amaranthus retroflexus, 240 h, read-out: Plant response rating, Pigweed; for pest or weed control at 31 g/ha: 31 g ai/ha; for pest or weed control at 125 g/ha: 125 g ai/ha
How it was run: as §1

[4] = test system: barnyardgrass (Echinochloa crus-galli); assay: Test A pre-/postemergence plant response; conditions: Echinochloa crus-galli, 240 h, read-out: Plant response rating, Barnyardgrass; for pest or weed control at 31 g/ha: 31 g ai/ha; for pest or weed control at 125 g/ha: 125 g ai/ha
How it was run: as §1

[5] = test system: wheat (Triticum aestivum); assay: Test A pre-/postemergence plant response; conditions: Triticum aestivum, 240 h, read-out: Plant response rating, Wheat; for plant injury at 31 g/ha: 31 g ai/ha; for plant injury at 125 g/ha: 125 g ai/ha
How it was run: as §1

[6] = test system: johnsongrass (Sorghum halepense); assay: Test B pre-/postemergence plant response; conditions: for pest or weed control at 31 g/ha / pest or weed control at 62 g/ha: Sorghum halepense, read-out: Plant response rating, Johnsongrass; for pest or weed control at 31 g/ha: 31 g ai/ha; for pest or weed control at 62 g/ha: 62 g ai/ha, 100 complete control
From the text: (§2) Seeds of plant species selected from blackgrass (Alopecurus myosuroides), downy bromegrass (Bromus tectorum), green foxtail (Setaria viridis), Italian ryegrass (Lolium multiflorum), wheat (Triticum aestivum), wild oat (Avena fatua), catchweed bedstraw (Galium aparine), bermudagrass (Cynodon dactylon), surinam grass (Brachiaria decumbens), cocklebur (Xanthium strumarium), corn (Zea mays), large crabgrass (Digitaria sanguinalis), woolly cupgrass (Eriochloa villosa), giant foxtail (Setaria faberii), goosegrass (Eleusine indica), johnsongrass (Sorghum halepense), kochia (Kochia scoparia), lambsquarters (Chenopodium album), morningglory (Ipomoea coccinea), eastern black (E.B.) nightshade (Solanum ptycanthum), yellow nutsedge (Cyperus esculentus), pigweed (Amaranthus retroflexus), common ragweed (Ambrosia elation), Russian thistle (Salsola iberica), soybean (Glycine max), common (oilseed) sunflower (Helianthus annuus), and velvetleaf (Abutilon theophrasti) were planted and treated preemergence with test chemicals formulated in a non-phytotoxic solvent mixture which included a surfactant.
(§3) At the same time, plants selected from these crop and weed species and also winter barley (Hordeum vulgare), canarygrass (Phalaris minor), chickweed (Stellaria media) and windgrass (Apera spica-venti) were treated with postemergence applications of some of the test chemicals formulated in the same manner. Plants ranged in height from 2 to 18 cm (1- to 4-leaf stage) for postemergence treatments.
(§4) Plant species in the flooded paddy test consisted of rice (Oryza sativa), umbrella sedge (Cyperus difformis), ducksalad (Heteranthera limosa) and barnyardgrass (Echinochloa crus-galli) grown to the 2-leaf stage for testing. At time of treatment, test pots were flooded to 3 cm above the soil surface, treated by application of test compounds directly to the paddy water, and then maintained at that water depth for the duration of the test. Treated plants and controls were maintained in a greenhouse for 13 to 15 days, after which time all species were compared to controls and visually evaluated. Plant response ratings, summarized in Table B, are based on a scale of 0 to 100 where 0 is no effect and 100 is complete control. A dash (-) response means no test result.

[7] = test system: green foxtail (Setaria viridis); assay: Test B pre-/postemergence plant response; conditions: for pest or weed control at 31 g/ha: 31 g ai/ha; for pest or weed control at 62 g/ha: 62 g ai/ha, 100 complete control
From the text: as §2, §3, §4

[8] = test system: wheat (Triticum aestivum); assay: Test B pre-/postemergence plant response; conditions: for plant injury at 31 g/ha / plant injury at 62 g/ha: Triticum aestivum, read-out: Plant response rating, Wheat; for plant injury at 31 g/ha: 31 g ai/ha; for plant injury at 62 g/ha: 62 g ai/ha, 100 complete control
From the text: as §2, §3, §4

[9] = post-emergence, Postemergence, 0 to 100 scale (0 no effect, 100 complete control)
[10] = post-emergence, Postemergence, 0 to 100 scale, 0 no effect, 100 complete control
[11] = pre-emergence, Preemergence, 0 to 100 scale, 0 is no effect, 100 is complete control
[12] = pre-emergence, Preemergence, 0 to 100 scale (0 no effect, 100 complete control)
[13] = 8 g ai/ha, postemergence, 0-100 scale
[14] = 16 g ai/ha, postemergence, 0-100 scale
[15] = Preemergence, 8 g ai/ha, scale 0 to 100
[16] = Preemergence, 16 g ai/ha, scale 0 to 100
[17] = post-emergence, Postemergence, scale 0 to 100
[18] = post-emergence, Postemergence, scale 0 to 100, 0 no effect
[19] = pre-emergence, Preemergence, scale 0 to 100 (0 no effect, 100 complete control)
[20] = pre-emergence, Preemergence, 0 to 100 scale, 0 no effect

## Cc1nn(C)c(=O)c(-n2nc(-c3ccc(C(F)(F)F)cc3)cc2C)c1O [Compound 75, 5-hydroxy-2,6-dimethyl-4-[5-methyl-3-[4-(trifluoromethyl)phenyl]-1H-pyrazol-1-yl]-3(2H)-pyridazinone]
[1]; [9]
  pest or weed control at 31 g/ha: 20%
[1]; [10]
  pest or weed control at 125 g/ha: 80%
[1]; [11]
  pest or weed control at 31 g/ha: 0%
[1]; [12]
  pest or weed control at 125 g/ha: 40%
Corn (Zea mays); [9]
  Corn plant response rating (crop injury, 0 = no effect, 100 = complete kill) at 31 g/ha: 0%
Corn (Zea mays); [10]
  Corn plant response rating (crop injury, 0 = no effect, 100 = complete kill) at 125 g/ha: 90%
Corn (Zea mays); [11]
  Corn plant response rating (crop injury, 0 = no effect, 100 = complete kill) at 31 g/ha: 0%
Corn (Zea mays); [12]
  Corn plant response rating (crop injury, 0 = no effect, 100 = complete kill) at 125 g/ha: 0%
[2]; [9]
  pest or weed control at 31 g/ha: 50%
[2]; [10]
  pest or weed control at 125 g/ha: 80%
[2]; [11]
  pest or weed control at 31 g/ha: 20%
[2]; [12]
  pest or weed control at 125 g/ha: 80%
[3]; [9]
  pest or weed control at 31 g/ha: 0%
[3]; [10]
  pest or weed control at 125 g/ha: 0%
[3]; [11]
  pest or weed control at 31 g/ha: 0%
[3]; [12]
  pest or weed control at 125 g/ha: 0%
[4]; [9]
  pest or weed control at 31 g/ha: 10%
[4]; [10]
  pest or weed control at 125 g/ha: 90%
[4]; [11]
  pest or weed control at 31 g/ha: 0%
[4]; [12]
  pest or weed control at 125 g/ha: 80%
[5]; [9]
  plant injury at 31 g/ha: 10%
[5]; [10]
  plant injury at 125 g/ha: 70%
[5]; [11]
  plant injury at 31 g/ha: 0%
[5]; [12]
  plant injury at 125 g/ha: 20%
[6]; [13]
  Johnsongrass plant response rating: 75
[6]; [14]
  Johnsongrass plant response rating: 80
[6]; [15]
  Johnsongrass plant response rating: 0
[6]; [16]
  Johnsongrass plant response rating: 75
[6]; [17]
  pest or weed control at 31 g/ha: 98%
[6]; [18]
  pest or weed control at 62 g/ha: 100%
[6]; [19]
  pest or weed control at 31 g/ha: 85%
[6]; [20]
  pest or weed control at 62 g/ha: 95%
[7]; [13]
  Foxtail, Green plant response rating: 0
[7]; [15]
  Foxtail, Green plant response rating: 0
[7]; [16]
  Foxtail, Green plant response rating: 30
[7]; Setaria viridis, post-emergence, Postemergence, 16 g ai/ha, scale 0 to 100, read-out: Plant response rating, Foxtail, Green
  pest or weed control at 16 g/ha: 40%
[7]; Setaria viridis, post-emergence, Postemergence, scale 0 to 100, read-out: Plant response rating, Foxtail, Green
  pest or weed control at 31 g/ha: 80%
[7]; Setaria viridis, post-emergence, Postemergence, scale 0 to 100, 0 no effect, read-out: Plant response rating, Foxtail, Green
  pest or weed control at 62 g/ha: 95%
[7]; Setaria viridis, pre-emergence, Preemergence, scale 0 to 100 (0 no effect, 100 complete control), read-out: Plant response rating, Foxtail, Green
  pest or weed control at 31 g/ha: 50%
[7]; Setaria viridis, pre-emergence, Preemergence, 0 to 100 scale, 0 no effect, read-out: Plant response rating, Foxtail, Green
  pest or weed control at 62 g/ha: 80%
[8]; [13]
  Wheat plant response rating: 0
[8]; [14]
  Wheat plant response rating: 20
[8]; [16]
  Wheat plant response rating: 0
[8]; [17]
  plant injury at 31 g/ha: 70%
[8]; [18]
  plant injury at 62 g/ha: 85%
[8]; [19]
  plant injury at 31 g/ha: 20%
[8]; [20]
  plant injury at 62 g/ha: 45%
